In PubChem BioAssay AID2060487 (Molecular Pharmacology Branch, DTP, NCI, 2025):

Tested on: 997537-175-T-J1-PDC complex spheroid viability
Assay: Anticancer human tumor 997537-175-T-J1-PDC patient-derived colon adenocarcinoma cell line growth inhibition [GQUAD]
Conditions: for IC50: curve of first compound; for viability, T/C: stronger effect = lower value
Outline: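 Tumor cells were grown as complex spheroids with HUVEC endothelial cells and mesenchymal stem cells as stroma. G-quadruplex stabilizers were combined with targeted agents over half-log dilutions from near the clinical Cmax, or from 10 microM.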

[1] = second compound 0.0316 µM, first compound 0.0316 µM
[2] = second compound 0.0316 µM, first compound 0.1 µM
[3] = second compound 0.0316 µM, first compound 0.316 µM
[4] = second compound 0.0316 µM, first compound 1 µM
[5] = second compound 0.0316 µM, first compound 3.16 µM
[6] = second compound 0.0316 µM, first compound 10 µM
[7] = second compound 0.1 µM, first compound 0.0316 µM
[8] = second compound 0.1 µM, first compound 0.1 µM
[9] = second compound 0.1 µM, first compound 0.316 µM
[10] = second compound 0.1 µM, first compound 1 µM
[11] = second compound 0.1 µM, first compound 3.16 µM
[12] = second compound 0.1 µM, first compound 10 µM
[13] = second compound 0.316 µM, first compound 0.0316 µM
[14] = second compound 0.316 µM, first compound 0.1 µM
[15] = second compound 0.316 µM, first compound 0.316 µM
[16] = second compound 0.316 µM, first compound 1 µM
[17] = second compound 0.316 µM, first compound 3.16 µM
[18] = second compound 0.316 µM, first compound 10 µM
[19] = second compound 1 µM, first compound 0.0316 µM
[20] = second compound 1 µM, first compound 0.1 µM
[21] = second compound 1 µM, first compound 0.316 µM
[22] = second compound 1 µM, first compound 1 µM
[23] = second compound 1 µM, first compound 3.16 µM
[24] = second compound 1 µM, first compound 10 µM
[25] = second compound 3.16 µM, first compound 0.0316 µM
[26] = second compound 3.16 µM, first compound 0.1 µM
[27] = second compound 3.16 µM, first compound 0.316 µM
[28] = second compound 3.16 µM, first compound 1 µM
[29] = second compound 3.16 µM, first compound 3.16 µM
[30] = second compound 3.16 µM, first compound 10 µM
[31] = second compound 10 µM, first compound 0.0316 µM
[32] = second compound 10 µM, first compound 0.1 µM
[33] = second compound 10 µM, first compound 0.316 µM
[34] = second compound 10 µM, first compound 1 µM
[35] = second compound 10 µM, first compound 3.16 µM
[36] = second compound 10 µM, first compound 10 µM
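Also: spheroids exposed to the agents for 7 days.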
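For viability, T/C in this document: 100% = DMSO vehicle control viability.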

SMILES: COc1ccc([C@@H](O)c2cc(-c3ncnc4cc(N5CCOCC5)ccc34)c(F)cc2Cl)nn1 + Cc1[nH]c2ccc(F)cc2c1-c1nc2c3cccnc3c3ncccc3c2[nH]1
- IC50 (second compound 0.0316 µM): > 10 µM
- IC50 (second compound 0.1 µM): > 10 µM
- IC50 (second compound 0.316 µM): > 10 µM
- IC50 (second compound 1 µM): 7.63 µM
- IC50 (second compound 3.16 µM): > 10 µM
- IC50 (second compound 10 µM): 8.49 µM
- viability, T/C [1]: 90%
- viability, T/C [2]: 98.5%
- viability, T/C [3]: 93.9%
- viability, T/C [4]: 80.4%
- viability, T/C [5]: 80.5%
- viability, T/C [6]: 60%
- viability, T/C [7]: 110%
- viability, T/C [8]: 86.2%
- viability, T/C [9]: 92.3%
- viability, T/C [10]: 60.7%
- viability, T/C [11]: 106%
- viability, T/C [12]: 48.8%
- viability, T/C [13]: 86.8%
- viability, T/C [14]: 98.9%
- viability, T/C [15]: 100%
- viability, T/C [16]: 81%
- viability, T/C [17]: 98.9%
- viability, T/C [18]: 67.8%
- viability, T/C [19]: 74.3%
- viability, T/C [20]: 81.4%
- viability, T/C [21]: 95.4%
- viability, T/C [22]: 72%
- viability, T/C [23]: 86.6%
- viability, T/C [24]: 40.1%
- viability, T/C [25]: 72.4%
- viability, T/C [26]: 71.9%
- viability, T/C [27]: 51.2%
- viability, T/C [28]: 92.2%
- viability, T/C [29]: 95.9%
- viability, T/C [30]: 54.7%
- viability, T/C [31]: 66%
- viability, T/C [32]: 88.5%
- viability, T/C [33]: 73.1%
- viability, T/C [34]: 73.1%
- viability, T/C [35]: 80.4%
- viability, T/C [36]: 45.7%

SMILES: CC1COCCN1c1cc(C2(S(C)(=N)=O)CC2)nc(-c2ccnc3[nH]ccc23)n1 (stereo unspecified) + CN(C)c1ccc(Nc2c3ccc(NC(=O)CCN4CCCC4)cc3nc3cc(NC(=O)CCN4CCCC4)ccc23)cc1
- IC50 (second compound 0.0316 µM): 8.42 µM
- IC50 (second compound 0.1 µM): > 10 µM
- IC50 (second compound 0.316 µM): > 10 µM
- IC50 (second compound 1 µM): > 10 µM
- IC50 (second compound 3.16 µM): > 10 µM
- IC50 (second compound 10 µM): > 10 µM
- viability, T/C [1]: 93.6%
- viability, T/C [2]: 82.9%
- viability, T/C [3]: 74.4%
- viability, T/C [4]: 84.5%
- viability, T/C [5]: 56%
- viability, T/C [6]: 49%
- viability, T/C [7]: 82.3%
- viability, T/C [8]: 80%
- viability, T/C [9]: 75.1%
- viability, T/C [10]: 59.5%
- viability, T/C [11]: 48.6%
- viability, T/C [12]: 81.9%
- viability, T/C [13]: 98.7%
- viability, T/C [14]: 66.3%
- viability, T/C [15]: 79.2%
- viability, T/C [16]: 76%
- viability, T/C [17]: 65%
- viability, T/C [18]: 76%
- viability, T/C [19]: 90%
- viability, T/C [20]: 67.4%
- viability, T/C [21]: 87.8%
- viability, T/C [22]: 75.8%
- viability, T/C [23]: 70.9%
- viability, T/C [24]: 70.5%
- viability, T/C [25]: 70.2%
- viability, T/C [26]: 93%
- viability, T/C [27]: 86.7%
- viability, T/C [28]: 82.8%
- viability, T/C [29]: 73.4%
- viability, T/C [30]: 70.6%
- viability, T/C [31]: 77%
- viability, T/C [32]: 95.7%
- viability, T/C [33]: 94.5%
- viability, T/C [34]: 88.9%
- viability, T/C [35]: 55.5%
- viability, T/C [36]: 77%

SMILES: CC1COCCN1c1cc(C2(O)CC3CCC(C2)O3)c2cnn(-c3ccn[nH]3)c2n1 (stereo unspecified) + CN(C)c1ccc(Nc2c3ccc(NC(=O)CCN4CCCC4)cc3nc3cc(NC(=O)CCN4CCCC4)ccc23)cc1
- IC50 (second compound 0.0316 µM): 0.786 µM
- IC50 (second compound 0.1 µM): 0.461 µM
- IC50 (second compound 0.316 µM): 1.69 µM
- IC50 (second compound 1 µM): 0.211 µM
- IC50 (second compound 3.16 µM): > 10 µM
- IC50 (second compound 10 µM): > 10 µM
- viability, T/C [1]: 78.9%
- viability, T/C [2]: 74.6%
- viability, T/C [3]: 57.6%
- viability, T/C [4]: 46.9%
- viability, T/C [5]: 44.2%
- viability, T/C [6]: 51.1%
- viability, T/C [7]: 105%
- viability, T/C [8]: 79%
- viability, T/C [9]: 55.3%
- viability, T/C [10]: 37.1%
- viability, T/C [11]: 43.8%
- viability, T/C [12]: 48.5%
- viability, T/C [13]: 86.9%
- viability, T/C [14]: 60.2%
- viability, T/C [15]: 58.5%
- viability, T/C [16]: 42.2%
- viability, T/C [17]: 48.7%
- viability, T/C [18]: 54.2%
- viability, T/C [19]: 77.7%
- viability, T/C [20]: 52.8%
- viability, T/C [21]: 44.8%
- viability, T/C [22]: 40.7%
- viability, T/C [23]: 49%
- viability, T/C [24]: 60%
- viability, T/C [25]: 55.8%
- viability, T/C [26]: 65.7%
- viability, T/C [27]: 70.2%
- viability, T/C [28]: 45.6%
- viability, T/C [29]: 47.9%
- viability, T/C [30]: 66.5%
- viability, T/C [31]: 82.7%
- viability, T/C [32]: 61.9%
- viability, T/C [33]: 69.4%
- viability, T/C [34]: 47%
- viability, T/C [35]: 41.8%
- viability, T/C [36]: 66.5%
